Where a name gives a salt, the structure may show the parent alone.
How the values were obtained:
M. abscessus strain M422 = assay: Single-concentration assay with and without clarithromycin (hit validation); assay type: cell-based, Mycobacterium abscessus; conditions: for % inhibition with 0.5 μg/ml Clr: compound combined with clarithromycin; for % inhibition with compound alone: without clarithromycin
Experimental: For checkerboard synergy assay, 3 M. abscessus strains were used: M. abscessus ATCC 19977, M. abscessus strains M422 and M110, while bactericidal activity determination and the zebrafish study were performed with M. abscessus ATCC 19977. All three strains of M. abscessus harbor the inducible clarithromycin resistance-conferring erm(41) T28 sequevar. M. abscessus strain M422 and M110 were provided by Dr. Jeanette Teo, National University Hospital, Singapore (Chew K L, et al., 2017. J Med Microbiol 66: 1443-1447). M. abscessus ATCC 19977 and M. avium ATCC 700898 were acquired from American Type Culture Collection (ATCC).
Primary screening was carried out in 96-well flat-bottom Corning Costar cell culture plates at 50 μM compound along with 4 μg/ml of Clr in a starting inoculum of pre-induced M. abscessus cells at OD600 of 0.005 in a final volume of 100 μl. The plates were put in an airtight container with moist paper towels and incubated for 4 d at 30° C. The cultures in the wells were resuspended before OD600 was read in a BioTek Synergy 4 plate reader.
To start the validation process, the top 10 compounds with >90% growth inhibition were chose to perform a single-concentration assay, with and without clarithromycin. Finally, the inventors obtained 7 compounds that potentiated Clr efficacy.

[1] = test system: M. abscessus ATCC 19977 (pre-induced); assay: microbe, parasite or virus in culture; assay type: cell-based, Mycobacterium abscessus; conditions: for Percentage of bacterial growth: clarithromycin 0 μg/ml
Experimental: The FICI was calculated by summing the FIC of Rfx and the FIC of Clr. FIC of Clr is the MIC of Clr in the presence of Rfx divided by MIC of Clr alone. FIC of Rfx was similarly calculated.
To characterize the interaction between Clr and Rfx, checkerboard synergy assays were performed on pre-induced Clr-resistant M. abscessus. The fractional inhibitory concentration index (FICI) obtained from the checkerboard assay defines whether the interaction between the two compounds is either synergistic (FICI≤0.5), additive (0.5<FICI≤1.0), indifferent (1.0<FICI≤4.0), or antagonistic (FICI >4.0) (Noel D J, Keevil C W, Wilks S A. 2021. MBio 12).

Molecule | % inhibition with 0.5 μg/ml Clr (M. abscessus strain M422) | % inhibition with compound alone (M. abscessus strain M422) | Percentage of bacterial growth ([1]; partner antibiotic 1 μg/ml) | Percentage of bacterial growth ([1]; partner antibiotic 2 μg/ml) | Percentage of bacterial growth ([1]; partner antibiotic 4 μg/ml) | Percentage of bacterial growth ([1]; partner antibiotic 8 μg/ml) | Percentage of bacterial growth ([1]; partner antibiotic 16 μg/ml) | Percentage of bacterial growth ([1]; partner antibiotic 32 μg/ml) | Percentage of bacterial growth ([1]; partner antibiotic 64 μg/ml) | concentration at which synergistic effects with clarithromycin are exhibited ([1]; Table 3) | FICI ([1]; clarithromycin with a known partner antibiotic, each 0-64 μg/ml)
OB1OCc2cc(F)ccc21 [AN-2690] | 96.7% | 80.4% |  |  |  |  |  |  |  |  | 
CC(=O)OC[C@H]1O[C@@H]([S-])[C@H](OC(C)=O)[C@@H](OC(C)=O)[C@@H]1OC(C)=O.CCP(CC)CC.[Au+] [Auranofin] | 98.5% | 86.9% |  |  |  |  |  |  |  |  | 
CO/N=C(\C(=O)N[C@@H]1C(=O)N2C(C(=O)O)=C(COC(C)=O)CS[C@H]12)c1csc(N)n1 [Cefotaxime (sodium salt), Cefotaxime] | 98.5% | 86.7% |  |  |  |  |  |  |  |  | 
CO[C@@H]1[C@@H](OC(N)=O)[C@@H](O)[C@H](Oc2ccc3c(O)c(NC(=O)c4ccc(O)c(CC=C(C)C)c4)c(=O)oc3c2C)OC1(C)C [Novobiocin (Sodium), Novobiocin] | 99.7% | 84.1% |  |  |  |  |  |  |  |  | 
CC(=O)NC[C@H]1CN(c2ccc(N3CCSCC3)c(F)c2)C(=O)O1 [Sutezolid] | 92.8% | 80.4% |  |  |  |  |  |  |  |  | 
Cn1nnc(-c2ccc(-c3ccc(N4C[C@H](CO)OC4=O)cc3F)cn2)n1 [Tedizolid] | 99.1% | 85.2% |  |  |  |  |  |  |  |  | 
C[C@@H](O)[C@H]1C(=O)N2C(C(=O)O)=C(SCCN=CN)C[C@H]12 [imipenem] |  |  | 86.9% | 93.4% | 58.5% | 78.5% | 62.1% | 38.3% | 16.6% |  | 
COc1c(N2C[C@@H]3CCCN[C@@H]3C2)c(F)cc2c(=O)c(C(=O)O)cn(C3CC3)c12 [moxifloxacin] |  |  | 107.8% | 122.8% | 86.4% | 51.2% | 13.4% | 7.4% | 0.6% |  | 
CN(C)c1cc(NC(=O)CNC(C)(C)C)c(O)c2c1C[C@H]1C[C@H]3[C@H](N(C)C)C(O)=C(C(N)=O)C(=O)[C@@]3(O)C(O)=C1C2=O [tigecycline] |  |  | 64.2% | 74.2% | 77.8% | 67.0% | 39.3% | 22.4% | 10.1% | ≥ 16 µg/mL | 0.25
CN[C@H](CC(C)C)C(=O)N[C@H]1C(=O)N[C@@H](CC(N)=O)C(=O)N[C@H]2C(=O)N[C@H]3C(=O)N[C@H](C(=O)N[C@H](C(=O)O)c4cc(O)cc(O)c4-c4cc3ccc4O)[C@H](O)c3ccc(c(Cl)c3)Oc3cc2cc(c3O[C@@H]2O[C@H](CO)[C@@H](O)[C@H](O)[C@H]2O[C@H]2C[C@](C)(N)[C@H](O)[C@H](C)O2)Oc2ccc(cc2Cl)[C@H]1O [vancomycin] |  |  | 103.7% | 102.0% | 105.7% | 91.7% | 90.8% | 86.6% | 83.1% |  | 
oritavancin diphosphate |  |  | 68.0% | 59.1% | 51.1% | 46.8% | 40.9% | 32.2% | 26.1% |  | 

Source: patent US20260130932A1, “NOVEL COMBINATION OF RIFAXIMIN AND CLARITHROMYCIN FOR TREATING MULTIDRUG-RESISTANT MYCOBACTERIUM ABSCESSUS” (priority 2022, published 2026)
